Data set [1] can be described thus: Hygroscopicity studies (vapor sorption isotherm). The format is physicochemical.
Data set [2] is described as follows: Solid state stability studies, 21 days. The format is physicochemical. Particulars: for Total impurities: HPLC area-%. The protocol:
The solid-state stability of crystalline E7974-form M1—unsolvated was evaluated for 21 days. […] In addition, a different peak appeared at only a 0.12% level for sample stored at 40° C. and exposed to 75% relative humidity.

Data set [3] deals with several cell lines, including human lung carcinoma, human colon carcinoma and human melanoma. The conditions noted are these: several cell lines incl. human lung carcinoma; cited from earlier work.
Where [4] appears, read: 25° C., visible light (6.8 million lux-hours), 21 d.

We go through two compounds from US20060281690A1, “Crystalline (2E,4S)-4-[(N-{[(2R)-1-isopropylpiperidin-2-yI]-carbonyl}-3-methyl-L-valyl)(methyl)amino]-2,5-dimethylhex-2-enoic acid and its pharmaceutical uses” (Eisai Co. Ltd., priority 2005, published 2006).

Structures are written as SMILES. Values joined by “and” are separate entries in the source; they are usually repeats but may differ in a detail not shown here. Equal values may be shown once.

The compound `C/C(=C\[C@H](C(C)C)N(C)C(=O)[C@@H](NC(=O)[C@H]1CCCCN1C(C)C)C(C)(C)C)C(=O)O` [Crystalline E7974-form M1—unsolvated, (2E,4S)-4-[(N-{[(2R)-1-isopropylpiperidin-2-yl]carbonyl}-3-methyl-L-valyl)(methyl)amino]-2,5-dimethylhex-2-enoic acid] registered an increase in weight in data set [1] (at 70% RH, 25° C., FIG. 2) of 1.9%. Besides, in data set [1] (high relative humidity (% RH), FIG. 1), the deliquescence result is recorded as “deliquesces at high relative humidity”. The water adsorption reversibility entry in data set [1] (up to 70% RH) is “reversible up to 70% RH”. For the same compound, the hygroscopicity classification result in data set [1] (up to 70% RH, criterion: hygroscopic = not less than 3.0% water increase at 75% RH for a week) was “non-hygroscopic”. For the same compound, the hygroscopicity entry in data set [1] (vapor sorption isotherm, FIG. 1) is “slightly hygroscopic”. Further, the Total impurities in data set [2] (25° C., light shield, 21 d) is 0.76%; in data set [2] (setting [4]), 0.87%; in data set [2] (40° C., 75% RH, 21 d), 0.89%; in data set [2] (60° C., light shield, 21 d) it was 0.78%; in data set [2] (Initial, sum of all impurities >0.05%), 0.72%; in data set [2] (−20° C., light shield, 21 d) it was 0.72%. The Wt/Wt in data set [2] (25° C., light shield, 21 d, control: −20° C. light shielded sample) is reported as 100.3%; in data set [2] (setting [4]) it was 99.9%; in data set [2] (40° C., 75% RH, 21 d), 102.2%; in data set [2] (60° C., light shield, 21 d), 100.9%. Further, in data set [2] (40° C., 75% relative humidity, 21 days), the “level of a different new impurity peak” value came to 0.12%. Besides, the “level of new impurity peaks” value in data set [2] (21 days at 25° C. and visible light, two new peaks) was 0.05% and 0.09%. Besides, the “changes in the impurity profile” value in data set [2] (shielded from light, stored at 25 and 60° C., 21 days) is “No significant changes”.

As to `CN[C@H](C(=O)N[C@H](C(=O)N(C)[C@H](/C=C(\C)C(=O)O)C(C)C)C(C)(C)C)C(C)(C)c1cn(C)c2ccccc12` [Hemiasterlin], the antitumor activity result in data set [3] is on record as “exhibits antitumor activity”.
